The target of assay [1] is T1, Excitatory amino acid transporter 3 (Homo sapiens) (UniProt P43005).
T1 sequence (whole entry): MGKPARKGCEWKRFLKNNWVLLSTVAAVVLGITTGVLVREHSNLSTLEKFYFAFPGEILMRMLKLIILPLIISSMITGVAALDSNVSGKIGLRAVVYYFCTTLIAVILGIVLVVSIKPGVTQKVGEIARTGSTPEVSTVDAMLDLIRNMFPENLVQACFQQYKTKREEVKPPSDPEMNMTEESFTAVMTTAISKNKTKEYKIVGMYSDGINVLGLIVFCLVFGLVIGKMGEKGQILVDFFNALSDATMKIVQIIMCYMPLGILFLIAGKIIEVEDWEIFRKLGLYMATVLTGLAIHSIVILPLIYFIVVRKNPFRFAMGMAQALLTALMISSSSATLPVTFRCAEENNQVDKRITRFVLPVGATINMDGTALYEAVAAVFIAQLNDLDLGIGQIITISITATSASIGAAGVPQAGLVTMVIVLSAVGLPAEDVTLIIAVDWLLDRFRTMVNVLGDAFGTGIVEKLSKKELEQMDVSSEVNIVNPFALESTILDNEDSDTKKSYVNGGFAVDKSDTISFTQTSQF
As to the kind of experiment: Substrate activity at human EAAT3 expressed in HEK293 cells by FLIPR membrane potential assay. It is filed as functional, cell-based.

For assay [2], the target named is Excitatory amino acid transporter 2 (Homo sapiens) (UniProt P43004). The conditions noted are these: HEK293.
Excitatory amino acid transporter 2 (Homo sapiens), sequence (P43004 whole entry): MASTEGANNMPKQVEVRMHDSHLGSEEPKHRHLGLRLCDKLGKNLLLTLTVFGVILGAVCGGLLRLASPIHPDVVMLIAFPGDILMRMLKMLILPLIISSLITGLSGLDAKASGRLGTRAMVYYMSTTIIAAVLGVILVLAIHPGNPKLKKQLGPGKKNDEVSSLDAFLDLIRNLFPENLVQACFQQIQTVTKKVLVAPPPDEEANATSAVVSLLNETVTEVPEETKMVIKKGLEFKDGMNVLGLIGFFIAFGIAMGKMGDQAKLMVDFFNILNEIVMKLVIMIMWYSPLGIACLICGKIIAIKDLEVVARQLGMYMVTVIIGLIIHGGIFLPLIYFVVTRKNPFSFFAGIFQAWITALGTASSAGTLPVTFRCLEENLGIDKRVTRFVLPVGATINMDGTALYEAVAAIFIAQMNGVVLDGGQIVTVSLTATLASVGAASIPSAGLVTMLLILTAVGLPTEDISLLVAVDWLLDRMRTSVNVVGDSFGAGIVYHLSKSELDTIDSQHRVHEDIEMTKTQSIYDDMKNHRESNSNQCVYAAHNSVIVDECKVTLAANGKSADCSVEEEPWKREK
Description: Substrate activity at human EAAT2 expressed in HEK293 cells by FLIPR membrane potential assay
In assay [3] the target is Excitatory amino acid transporter 1 (Homo sapiens) (UniProt P43003). As to the kind of experiment: Substrate activity at human EAAT1 expressed in HEK293 cells by FLIPR membrane potential assay. Type of assay: functional, cell-based.
Excitatory amino acid transporter 1 (Homo sapiens), sequence (P43003 whole entry): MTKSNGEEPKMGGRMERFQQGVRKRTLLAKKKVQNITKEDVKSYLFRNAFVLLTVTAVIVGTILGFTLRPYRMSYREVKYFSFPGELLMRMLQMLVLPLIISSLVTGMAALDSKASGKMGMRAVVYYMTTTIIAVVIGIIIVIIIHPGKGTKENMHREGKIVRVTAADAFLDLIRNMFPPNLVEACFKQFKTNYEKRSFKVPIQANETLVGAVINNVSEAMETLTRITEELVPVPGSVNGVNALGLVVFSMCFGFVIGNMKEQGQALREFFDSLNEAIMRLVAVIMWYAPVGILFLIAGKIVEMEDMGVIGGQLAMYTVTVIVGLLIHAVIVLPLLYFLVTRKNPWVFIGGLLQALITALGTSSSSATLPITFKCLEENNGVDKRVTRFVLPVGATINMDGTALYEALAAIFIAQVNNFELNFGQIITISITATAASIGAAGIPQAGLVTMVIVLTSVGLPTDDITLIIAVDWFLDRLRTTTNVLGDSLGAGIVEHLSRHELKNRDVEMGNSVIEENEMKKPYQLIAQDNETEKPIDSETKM
Assay [4] shares this target. The assay can be described thus: Substrate activity at human EAAT1 expressed in HEK293 cells relative to glutamate by FLIPR membrane potential assay. It is filed as functional, cell-based.
Assay [5] has as its target T1, Excitatory amino acid transporter 3 (Homo sapiens). The assay can be described thus: Substrate activity at human EAAT3 expressed in HEK293 cells at 1000 uM relative to glutamate by FLIPR membrane potential assay. Type of assay: functional, cell-based.
Assay [6] concerns the target Excitatory amino acid transporter 1 (Homo sapiens) (UniProt P43003). The assay can be described thus: Substrate activity at human EAAT1 expressed in HEK293 cells at 1000 uM relative to glutamate by FLIPR membrane potential assay. Type of assay: functional, cell-based.

`N[C@@H](CCC(=O)O)C(=O)O`: the pKm in assay [1] worked out at 5; in assay [2] it was 4.7; in assay [3] it was 5.1.
In assay [4], `N[C@H](C(=O)O)[C@@H]1CC[C@H]1C(=O)O` registered an Activity of 94%. This molecule also came in with a pKm in assay [3] of 4.
Turning to `N[C@H](C(=O)O)[C@H]1CC[C@@H]1C(=O)O`, the Activity in assay [5] is 48%; in assay [6], 72%.
